These results are taken from paper PMC3711284, “Anti-antimicrobial Peptides” (The Journal of Biological Chemistry, 2013).

Where two headings read alike, the source gives them in different places. Where no end group is shown, it is not given here. A value given as a limit tells only on which side of the number the result lay.

The test system of one data set is S. aureus (ATCC6538). The format is cell-based, Staphylococcus aureus.
A further data set relates to human erythrocytes. Briefly: Hemolysis assay. The format is cell-based. How it is done: Hemolysis was determined by incubating 10% (v/v) suspension of human erythrocytes with peptides. Erythrocytes were rinsed four times in 10 mM PBS, pH 7.2, by repeated centrifugation and resuspension (3 min at 3000 × g). Erythrocytes were incubated at room temperature for 1 h in either deionized water (fully hemolysed control), PBS, or with peptide in PBS. After centrifugation at 10,000 × g for 5 min, the supernatant was separated from the pellet and the absorbance measured at 550 nm. Absorbance of the suspension treated with deionized water defined complete hemolysis. The values below correspond to the percentage of hemolysis at tested concentrations. All tests were done in triplicate.

Data set [1] relates to Micrococcus luteus NCIMB 13267. The class given is cell-based. How it is done: (§1) MICs were determined by broth microdilution on Pseudomonas aeruginosa ATCC 27853, Escherichia coli K12, Staphylococcus aureus ATCC 25723, Micrococcus luteus NCIMB 13267, and Bacillus subtilis ATCC 6633 according to the Clinical and Laboratory Standards Institute. Typically, 100 μl of 0.5–1 × 10^6 cfu/ml of each bacterium in Mueller-Hinton medium broth (Oxoid) was incubated in 96-well microtiter plates with 100 μl of serial 2-fold dilutions of the peptides (from 100 to 0 μM) at 37 °C on a three-dimensional orbital shaker. The absorbance was measured after peptide addition at 600 nm using a Victor 2 plate reader (PerkinElmer Life Sciences). MICs were defined as the lowest peptide concentration after 24 h at 37 °C. All tests were done in triplicate.

Data set [2] has as its system Pseudomonas aeruginosa ATCC 27853. The format is cell-based. How it is done: as §1
Another data set concerns Escherichia coli K12. The class given is cell-based. How it is done:
as §1

Data set [3] concerns Bacillus subtilis ATCC 6633. The format is cell-based. How it is done: as §1
In a further data set the test system is cBt. Briefly: Isothermal titration calorimetry of anti-cBt into cBt. Conditions: ITC, 20 °C. The class given is binding. How it is done: Measurements were obtained using a Microcal VP-isothermal titration calorimeter and a calorimetric cell (initial volume 1.46 ml) with a 260-s equilibration time and a 120-s initial delay after each addition. The titrations were performed at 20 °C with stirring until no further enthalpy changes were observed. Binding isotherms were recorded for cBt (30 μM) following the injection of anti-cBt (2 μl aliquots, 1.4 mM) into the cell. The observed heats were corrected for dilution effects by titrating peptide solutions, as appropriate, into the buffer and using the heat of last injections due to negligible differences between the first and last injections. All the data were corrected for the volume of the added titrant and analyzed by proprietary software (Microcal Origin 7) using a one-site binding model to allow for the determination of association constants (Ka), changes in enthalpy (ΔH) and enthropy (ΔS). Each experiment was performed in triplicate.
(In general: ITC needs no label: the signal is the heat of the interaction.)

The subject of a further data set is P. aeruginosa. Briefly: Gram stain assay after overnight incubation with peptide. The note with it: incubated with peptide for 16 h, optical microscopy; anti-cBt:cBt 10:1 (100:10 μM). The class given is cell-based, Pseudomonas aeruginosa. How it is done: (§2) 20 μl of a bacterium culture was dispensed onto a glass slide and spread well. The slide was swiftly passed through a Bunsen flame to dry and fix cells before staining. The fixed bacteria were first covered in crystal violet (0.25%) for 30 s followed by washing with water (distilled, filtered 0.22 μm) until all of the excess stain was washed off, and then with iodine (1.0%) for 2 min before washing with a minimum amount of acetone needed to rinse off the iodine color. The cells were counterstained with safranin (0.5%) for 30 s, washed with water, and dried by a Bunsen flame. The obtained slides were viewed under a Leica DMLB fluorescent microscope. The images were obtained at ×100 magnification under oil and analyzed by ImageJ.

The next data set deals with E. coli. The description is as above. The class given is cell-based, Escherichia coli. Conditions: incubated with peptide for 16 h, optical microscopy; anti-cBt:cBt 10:1 (100:10 μM). How it is done: as §2
In another data set the test system is S. aureus (ATCC 25723). The class given is cell-based. How it is done:
S. aureus (ATCC 25723) culture (1 ml) was centrifuged to give a cell pellet, which was washed twice with 10 mM phosphate buffer, pH 7.4, before being reconstituted in phosphate buffer to give A600 nm = 0.008. 1 ml of the solution was dispensed in a 2-well glass chamber (LabTek) with diluted (1/500) propidium iodide (1 mg/ml, from Invitrogen). The chambers with surface-settled bacteria (60 min) were mounted on a confocal microscope (Olympus) equipped with an incubation chamber at 37 °C. Propidium iodide fluorescence emission was monitored at 625 nm for 60 min (three frames/min) using an appropriate filter after the addition of peptide (1 ml). Recorded images (XYZ) were analyzed using Fiji software to plot the number of fluorescent (stain-dead) cells as a function of time.

The mark [4] stands for this setting: broth microdilution, Mueller-Hinton broth, 24 h, 37 °C, A600, triplicate.
Where [5] appears, read: human erythrocytes 10% (v/v) in PBS pH 7.2, 1 h, room temperature, A550, 50% cell death compared with untreated cells, triplicate.

On to “GEFAQFEQEAQSLEQELSQLEQQLESL-NH2 [Anti-b27]”, for which, in the data set with S. aureus (ATCC6538) (ATCC6538, 24 h), the “Minimum inhibitory concentration (MIC) S. aureus (ATCC6538)” value was above 200 µM. The “HE (LC50)” value in the data set on human erythrocytes (pH 7.2) was “≫250 μM”. Further, the “Minimum inhibitory concentration (MIC) M. luteus (NCIMB 13267)” value in data set [1] (NCIMB 13267, 24 h) was above 200 µM. In [2] (ATCC 27853, 24 h), the “Minimum inhibitory concentration (MIC) P. aeruginosa (ATCC27853)” value was above 200 µM. For the same substance, the “Minimum inhibitory concentration (MIC) E. coli (K12)” value with Escherichia coli K12 (K12, 24 h) was above 200 µM. Further, the “Minimum inhibitory concentration (MIC) B. subtilis (ATCC6633)” value in [3] (ATCC 6633, 24 h) is above 200 µM.

As for “EAQNLEKEIAALEQAIQGLEKEIPALAQQIQALEL-NH2 [Anti-cBt]”, the “association (binding) constant (Ka)” value with cBt (anti-cBt (1.4 mM) injected into cBt (30 μM), one-site binding model, triplicate) was 2.8 ± 0.2 × 10^6 M^−1. Further, in the data set on cBt (anti-cBt into cBt (30 μM)), the ΔG of binding is -7.8 kcal/mol. Also, the “binding enthalpy (ΔH)” value in the data set on cBt (anti-cBt into cBt (30 μM), endothermic) stood at 9.7 kcal/mol. Further, in the data set with P. aeruginosa, the “effect on P. aeruginosa cell growth, Gram stain” value was “No obvious effects”. Further, in the data set with S. aureus (ATCC6538) (setting [4]), the “Minimum inhibitory concentration (MIC) S. aureus (ATCC6538)” value was above 200 µM. Further, the “HE (LC50)” value with human erythrocytes (setting [5]) is “≫250 μM”. For the same substance, in the data set with E. coli, the “effect on E. coli cell growth, Gram stain” value is recorded as “No obvious effects”. Further, in the data set with S. aureus (ATCC 25723) (stain-dead S. aureus, propidium iodide, 37 °C), the “effect on killing of S. aureus at concentrations >100 μM” value is “No effects”. Also, the “killing rate at higher concentrations (>250 μM)” value in the data set with S. aureus (ATCC 25723) (stain-dead S. aureus, cBt at MIC after 1 h = 100%) is 10%. Further, the “Minimum inhibitory concentration (MIC) M. luteus (NCIMB 13267)” value in data set [1] (setting [4]) is above 200 µM. For the same substance, in [2] (setting [4]), the “Minimum inhibitory concentration (MIC) P. aeruginosa (ATCC27853)” value is above 200 µM. The “Minimum inhibitory concentration (MIC) E. coli (K12)” value with Escherichia coli K12 (setting [4]) is above 200 µM. Further, the “Minimum inhibitory concentration (MIC) B. subtilis (ATCC6633)” value in data set [3] (setting [4]) is above 200 µM.

Turning to “KWKVFKKIEKMGRNIRNGIVKAGPAIAVLGEAKAL-NH2 (C-terminus assumed) [cB, cecropin B, reference compound]”, the “Minimum inhibitory concentration (MIC) S. aureus (ATCC6538)” value in the data set with S. aureus (ATCC6538) (ATCC6538, 24 h) was above 100 µM. Moreover, the “HE (LC50)” value in the data set with human erythrocytes (setting [5]) is on record as “≫250 μM”. Further, the “killing rate in the first 30 min” value in the data set with S. aureus (ATCC 25723) (ATCC 25723, 1 h, 100 μM, pH 7.4) was around 60%. Also, in data set [1] (NCIMB 13267, 24 h), the “Minimum inhibitory concentration (MIC) M. luteus (NCIMB 13267)” value was determined as 0.46 ± 0.20 µM. Further, in [2] (ATCC 27853, 24 h), the “Minimum inhibitory concentration (MIC) P. aeruginosa (ATCC27853)” value was 1.56 ± 0.01 µM. In addition, the “Minimum inhibitory concentration (MIC) E. coli (K12)” value in the data set on Escherichia coli K12 (K12, 24 h) turned out to be 0.62 ± 0.01 µM. The “Minimum inhibitory concentration (MIC) B. subtilis (ATCC6633)” value in data set [3] (ATCC 6633, 24 h) came to 50.7 ± 0.10 µM.

On to “GRFKRFRKKFKKLFKKLSPVIPLLHLG-NH2 [b27, bovine myeloid antimicrobial peptide-27, reference compound]”, for which the “Minimum inhibitory concentration (MIC) S. aureus (ATCC6538)” value in the data set on S. aureus (ATCC6538) (ATCC6538, 24 h) was above 100 µM. For the same substance, the “HE (LC50)” value with human erythrocytes (pH 7.2) is given as “≫250 μM”. In addition, in [1] (NCIMB 13267, 24 h), the “Minimum inhibitory concentration (MIC) M. luteus (NCIMB 13267)” value worked out at 0.74 ± 0.33 µM. For the same substance, in data set [2] (ATCC 27853, 24 h), the “Minimum inhibitory concentration (MIC) P. aeruginosa (ATCC27853)” value came to 4.51 ± 1.56 µM. Moreover, the “Minimum inhibitory concentration (MIC) E. coli (K12)” value in the data set with Escherichia coli K12 (K12, 24 h) was 3.13 ± 0.43 µM. Moreover, the “Minimum inhibitory concentration (MIC) B. subtilis (ATCC6633)” value in data set [3] (ATCC 6633, 24 h) came to 0.78 ± 0.01 µM.
